Source: patent US6726919B2, “Injectable dispersion of propofol” (RTP Pharma, Inc., priority 2000, dated 2004)
Structures can show the parent of a compound that is named as a salt. Where two headings read alike, the source gives them in different places.

Test system: human whole blood
Assay type: cell-based
Conditions: both, 1 h
Experimental: In-vitro evaluation of the hemolytic influence of the preparations of this invention on human whole blood is determined as a further guide to selecting formulations with a low tendency to produce irritation around the site of injection. The hemolytic potential of a formulation on blood is evaluated by an assay of erythrocyte cytoplasmic marker enzyme, lactate dehydrogenase (LDH) which escapes from the leaky or ruptured erythrocytes into the plasma compartment of the blood. For the assay, blood is obtained from male or female Caucasian human volunteers of 18 to 65 years of age and stabilized with sodium heparin. A test formulation is mixed with an equal volume of human whole blood and incubated at 37° C. for about 1 hour. The mixture is then held at ambient temperature for 30 minutes followed by centrifugation at 1500 rpm for 10 min. The level of LDH in the supernatant is determined according to protocols known in the art. An upper limit titre is determined by measuring the LDH levels resulting from hemolysis by amiodarone hydrochloride, a compound known to result in vein irritation upon venous injection in clinical settings (PDR 1999, p. 3289). Amiodarone hydrochloride IV solution, when tested at 50 mg/mL and after dilution with 5% aqueous dextrose to 1.8 mg/mL can result in LDH values of about 8000 IU/L and about 700 IU/L, respectively.

LDH values (1.8 mg/mL): about 700 IU/L | LDH values (50 mg/mL): about 8000 IU/L
Structure (SMILES): CCCCc1oc2ccccc2c1C(=O)c1cc(I)c(OCCN(CC)CC)c(I)c1 [Amiodarone hydrochloride, amiodarone hydrochloride]
